Patent US7208146B2, “Methods of treating lymphoma and leukemia” (Genitope Corporation, priority 1996, dated 2007)

System: parental BW5147.G.1.4 cells
Test: MTX sensitivity (growth cut off) of the parental cell line
Format: cell-based
Method: The parental (i e., non-transfected) BW5147.G.1.4 cells barely grow in the presence of 10 nM MTX. By visual inspection 3 to 5 days after plating, greater than about 98 percent of the parental BW5147.G.1.4 cells are killed when 1×10^4 cells are placed in 2 ml of medium containing 20 nM MTX in the well of a 24 well plate (this level of MTX is referred to as the growth cut off for the parental BW5147.G.1.4 cell line). At 30 nM MTX, colonies of BW5147.G.1.4 cells are seen at a frequency of less than 10^−7.
The transfected and selected cells (“selectants”) are plated in a range of MTX concentrations ranging from 10 to 100 nM; the cells are plated at a density of 1 to 5×10^4 cells per well in a 24 well plate (Costar); the selectants are plated at the same density of cells as was used to determine the level of MTX at which > about 98% of the parental cells were killed. This is done because MTX irreversibly binds to DHFR so that the number of cells present in a given volume effects the concentration of MTX required to kill the cells; that is if a higher density of cell is used, a higher concentration of MTX will be required to kill about 98% of the cells [For example when the parental cells are plated at a density of 1×10^4 cells/2 ml medium in the well of a 24 well plate 20 nM MTX is sufficient to kill >98% cells in a 3 to 5 day assay. If the density is increased two-fold (1×10^4 cells in ml medium), 25 nM MTX is required for >98% killing. If 5×10^4 cells are placed in 2 ml of medium in the well of a 24 well plate, 30 nM MTX is required to achieve >98% killing.]
Eight selectant clones having the highest levels of expression of DR were chosen for further manipulation. These eight selectant clones were then tested for their sensitivity to MTX. Each clone was plated at a density of 2×10^4 cells/well in a 24 well plate. Each well contained 1 ml of medium containing RPMI-1640, 10% dialyzed FCS and MTX. The clones were grown in the presence of either 3, 10, 30, 60 or 90 nM MTX. Non-transfected BW5147.G.1.4 cells were also grown in the above range of MTX as a control. Clones which grew in MTX levels at least 2–3 fold higher than that tolerated by the parental BW5147.G.1.4 (typically less than or equal to 10 nM MTX) were selected for further analysis. Four of the selectant clones grew in greater than or equal to 30 nM MTX and were retained; these clones are the primary transfectants chosen for amplification. All 4 clones which grew in >30 nM MTX were analyzed for the ability to express DR molecules on the surface by an ELISA. The cell surface ELISA was performed as follows.

SMILES: CN(Cc1cnc2nc(N)nc(N)c2n1)c1ccc(C(=O)N[C@@H](CCC(=O)O)C(=O)O)cc1 [MTX, methotrexate]
- growth of parental cells in the presence of MTX (10 nM MTX): barely grow
- parental BW5147.G.1.4 cells killed (20 nM MTX, 1×10^4 cells in 2 ml medium, well of a 24 well plate, visual inspection 3 to 5 days after plating): greater than 98%
- frequency of colonies of BW5147.G.1.4 cells (30 nM MTX): less than 10^−7
- MTX concentration sufficient to kill >98% of parental cells (1×10^4 cells/2 ml medium, 24 well plate, 3 to 5 day assay): 20 nM
- MTX level tolerated by parental BW5147.G.1.4 (2×10^4 cells/well in 1 ml, 24 well plate, RPMI-1640 with 10% dialyzed FCS): less than or equal to 10 nM
- MTX concentration required for >98% killing of parental cells (5×10^4 cells in 2 ml medium, 24 well plate): 30 nM
- MTX concentration required for >98% killing of parental cells (density increased two-fold (1×10^4 cells in ml medium)): 25 nM
